Data: US20260015350A1, “AZAQUINAZOLINE PAN-KRAS INHIBITORS” (Mirati Therapeutics, Inc., priority 2022, published 2026)

Assays:
[1] = system: KRas-mediated phosphorylation of ERK in A549 cells; experiment: Inhibition of KRas-mediated phosphorylation of ERK (Cisbio HTRF pERK), A549 cells; format: cell-based; conditions: Homo sapiens; for inhibition at 0.1 µM: A549, 3 h, single point, 100 nM compound, 3 hrs; for IC50: HTRF pERK
Outline: (§1)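 Cells were seeded at 6,000 per well and treated for 3 hrs with compound in a 10-dose, 3-fold series from 10 uM (0.8% final DMSO), with 0.2 uM Trametinib as Min control. Lysates made at 4° C over 40 mins were incubated 2 hrs at room temperature with d2- and Cryptate-labelled antibodies, then read by HTRF.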

[2] = target: T1, KRas^G13D (Homo sapiens, UniProt P01116, G13D); experiment: KRas binding assay (TR-FRET tracer displacement), KRas G13D; conditions: for inhibition at 0.01 µM: single point, 10 nM compound, TR-FRET
T1 construct: Biotinylated KRas (corresponding to amino acids 1-169, produced at Accelegan Inc.); biotin (biotinylated); purchased Accelegan Inc
T1 sequence (P01116 1-169 isoform P01116-2 G13D): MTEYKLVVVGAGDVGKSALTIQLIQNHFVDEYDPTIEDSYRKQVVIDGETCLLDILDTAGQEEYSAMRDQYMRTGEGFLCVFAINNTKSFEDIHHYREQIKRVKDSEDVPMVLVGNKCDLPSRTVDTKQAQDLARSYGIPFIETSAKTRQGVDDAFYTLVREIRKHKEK

[3] = system: KRas-mediated phosphorylation of ERK in PSN1 cells; experiment: Inhibition of KRas-mediated phosphorylation of ERK (Cisbio HTRF pERK), PSN1 cells; format: cell-based; conditions: Homo sapiens
Outline: (§2)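 Seeding density was 6,000 cells/well; medium RPMI, 10% FBS. Read-out by homogeneous time-resolved fluorescence (pERK) after 4 hours covered at room temperature.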

[4] = system: KRas-mediated phosphorylation of ERK in MKN1 cells; experiment: Inhibition of KRas-mediated phosphorylation of ERK (Cisbio HTRF pERK), MKN1 cells; format: cell-based; conditions: Homo sapiens, MKN-1
Outline: as §2

[5] = system: KRas-mediated phosphorylation of ERK in H358 cells; experiment: Inhibition of KRas-mediated phosphorylation of ERK (Cisbio HTRF pERK), H358 cells; format: cell-based; conditions: Homo sapiens; for inhibition at 0.1 µM: NCI-H358, 3 h, single point, 100 nM compound, 3 hrs; for IC50: NCI-H358, HTRF pERK
Outline: (§3)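 HTRF readout of phospho-ERK in cell lysates after 3 hrs of compound exposure. Dosing: 10 uM top, 3-fold steps, 10 doses, final DMSO 0.8%. Min control: 0.2 uM Trametinib. Lysis ran 40 mins at 4° C, and antibody detection 2 hrs at room temperature.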

[6] = target: T2, KRas^Q61H (Homo sapiens, UniProt P01116, Q61H); experiment: KRas binding assay (TR-FRET tracer displacement), KRas Q61H; conditions: for inhibition at 0.01 µM: single point, 10 nM compound, TR-FRET
T2 construct: Biotinylated KRas (corresponding to amino acids 1-169, produced at Accelegan Inc.); biotin (biotinylated); purchased Accelegan Inc
T2 sequence (P01116 1-169 isoform P01116-2 Q61H): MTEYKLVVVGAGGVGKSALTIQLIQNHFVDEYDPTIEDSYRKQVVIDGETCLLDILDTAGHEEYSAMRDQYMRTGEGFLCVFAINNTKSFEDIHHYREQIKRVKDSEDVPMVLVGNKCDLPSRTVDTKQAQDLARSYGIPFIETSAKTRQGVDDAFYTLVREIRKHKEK

[7] = system: KRas-mediated phosphorylation of ERK in AsPC-1 cells; experiment: Inhibition of KRas-mediated phosphorylation of ERK (Cisbio HTRF pERK), AsPC-1 cells; format: cell-based; conditions: Homo sapiens; for IC50: ASPC1, AsPC-1 cells, HTRF pERK
Outline: as §3

[8] = target: T3, KRas^G12V (Homo sapiens, UniProt P01116, G12V); experiment: KRas binding assay (TR-FRET tracer displacement), KRas G12V
T3 construct: Biotinylated KRas (corresponding to amino acids 1-169, produced at Accelegan Inc.); biotin (biotinylated); purchased Accelegan Inc
T3 sequence (P01116 1-169 isoform P01116-2 G12V): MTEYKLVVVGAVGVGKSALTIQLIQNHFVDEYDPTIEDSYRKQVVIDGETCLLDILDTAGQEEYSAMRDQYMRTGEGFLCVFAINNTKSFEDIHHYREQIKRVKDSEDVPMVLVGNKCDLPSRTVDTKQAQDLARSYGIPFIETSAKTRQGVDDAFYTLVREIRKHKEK

[9] = system: KRas-mediated phosphorylation of ERK in H460 cells; experiment: Inhibition of KRas-mediated phosphorylation of ERK (Cisbio HTRF pERK), H460 cells; format: cell-based; conditions: Homo sapiens; for inhibition at 0.1 µM: NCI-H460, 3 h, single point, 100 nM compound, 3 hrs; for IC50: NCI-H460, HTRF pERK
Outline: as §3

[10] = target: T4, KRas^G12C (Homo sapiens, UniProt P01116, G12C); experiment: KRas binding assay (TR-FRET tracer displacement), KRas G12C; conditions: for inhibition at 0.01 µM: single point, 10 nM compound, TR-FRET
T4 construct: Biotinylated KRas (corresponding to amino acids 1-169, produced at Accelegan Inc.); biotin (biotinylated); purchased Accelegan Inc
T4 sequence (P01116 1-169 isoform P01116-2 G12C): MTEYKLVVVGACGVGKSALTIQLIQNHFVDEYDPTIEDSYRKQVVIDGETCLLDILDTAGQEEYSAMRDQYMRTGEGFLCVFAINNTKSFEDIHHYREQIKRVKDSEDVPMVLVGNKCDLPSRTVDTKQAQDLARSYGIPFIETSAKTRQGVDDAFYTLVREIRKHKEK

[11] = target: T5, KRas^G12R (Homo sapiens, UniProt P01116, G12R); experiment: KRas binding assay (TR-FRET tracer displacement), KRas G12R
T5 construct: Biotinylated KRas (corresponding to amino acids 1-169, produced at Accelegan Inc.); biotin (biotinylated); purchased Accelegan Inc
T5 sequence (P01116 1-169 isoform P01116-2 G12R): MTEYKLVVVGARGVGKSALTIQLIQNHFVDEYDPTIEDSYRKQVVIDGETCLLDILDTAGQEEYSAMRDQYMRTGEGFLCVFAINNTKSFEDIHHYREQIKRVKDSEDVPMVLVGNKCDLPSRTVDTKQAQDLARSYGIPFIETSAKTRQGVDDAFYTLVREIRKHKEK

[12] = target: T6, KRas^G12A (Homo sapiens, UniProt P01116, G12A); experiment: KRas binding assay (TR-FRET tracer displacement), KRas G12A; conditions: for inhibition at 0.01 µM: single point, 10 nM compound, TR-FRET
T6 construct: Biotinylated KRas (corresponding to amino acids 1-169, produced at Accelegan Inc.); biotin (biotinylated); purchased Accelegan Inc
T6 sequence (P01116 1-169 isoform P01116-2 G12A): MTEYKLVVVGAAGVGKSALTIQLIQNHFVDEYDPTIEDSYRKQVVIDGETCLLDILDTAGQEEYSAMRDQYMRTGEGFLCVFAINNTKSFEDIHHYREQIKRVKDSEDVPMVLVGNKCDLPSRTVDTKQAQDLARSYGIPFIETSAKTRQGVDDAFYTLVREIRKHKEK

[13] = target: T7, KRas^WT (Homo sapiens, UniProt P01116); experiment: KRas binding assay (TR-FRET tracer displacement), KRas WT; conditions: for inhibition at 0.01 µM: single point, 10 nM compound, TR-FRET
T7 construct: Biotinylated KRas (corresponding to amino acids 1-169, produced at Accelegan Inc.); biotin (biotinylated); purchased Accelegan Inc
T7 sequence (P01116 1-169 isoform P01116-2): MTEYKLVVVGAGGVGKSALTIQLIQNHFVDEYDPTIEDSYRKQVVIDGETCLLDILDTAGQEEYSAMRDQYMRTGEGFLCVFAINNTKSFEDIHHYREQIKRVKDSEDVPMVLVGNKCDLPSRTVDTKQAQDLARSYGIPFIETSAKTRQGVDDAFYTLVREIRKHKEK

[14] = system: KRas-mediated phosphorylation of ERK in HCT116 cells; experiment: Inhibition of KRas-mediated phosphorylation of ERK (Cisbio HTRF pERK), HCT116 cells; format: cell-based; conditions: Homo sapiens; for inhibition at 0.1 µM: HCT-116, 3 h, single point, 100 nM compound, 3 hrs; for IC50: HCT-116, HTRF pERK
Outline: as §1

[15] = target: T8, KRas^G12S (Homo sapiens, UniProt P01116, G12S); experiment: KRas binding assay (TR-FRET tracer displacement), KRas G12S; conditions: for inhibition at 0.01 µM: single point, 10 nM compound, TR-FRET
T8 construct: Biotinylated KRas (corresponding to amino acids 1-169, produced at Accelegan Inc.); biotin (biotinylated); purchased Accelegan Inc
T8 sequence (P01116 1-169 isoform P01116-2 G12S): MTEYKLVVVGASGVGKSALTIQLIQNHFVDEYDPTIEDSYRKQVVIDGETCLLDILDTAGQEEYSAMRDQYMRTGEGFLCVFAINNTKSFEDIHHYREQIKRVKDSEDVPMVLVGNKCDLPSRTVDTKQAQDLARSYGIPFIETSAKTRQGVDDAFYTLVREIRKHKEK

[16] = system: KRas-mediated phosphorylation of ERK in H727 cells; experiment: Inhibition of KRas-mediated phosphorylation of ERK (Cisbio HTRF pERK), H727 cells; format: cell-based; conditions: Homo sapiens; for IC50: NCI-H727, H727 cells, HTRF pERK
Outline: as §3

[17] = target: T9, KRas^G12D (Homo sapiens, UniProt P01116, G12D); experiment: KRas binding assay (TR-FRET tracer displacement), KRas G12D
T9 construct: Biotinylated KRas (corresponding to amino acids 1-169, produced at Accelegan Inc.); biotin (biotinylated); purchased Accelegan Inc
T9 sequence (P01116 1-169 isoform P01116-2 G12D): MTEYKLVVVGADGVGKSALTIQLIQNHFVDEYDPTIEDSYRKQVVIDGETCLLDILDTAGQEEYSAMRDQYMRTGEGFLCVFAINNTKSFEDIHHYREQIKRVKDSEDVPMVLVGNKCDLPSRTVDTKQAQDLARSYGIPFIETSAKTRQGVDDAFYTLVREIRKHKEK

Row | SMILES | inhibition at 0.1 µM [1] [%] | inhibition at 0.01 µM [2] [%] | IC50 [3] [nM] | IC50 [4] [nM] | inhibition at 0.1 µM [5] [%] | inhibition at 0.01 µM [6] [%] | IC50 [7] [nM] | IC50 [8] [nM] | inhibition at 0.1 µM [9] [%] | inhibition at 0.01 µM [10] [%] | IC50 [11] [nM] | inhibition at 0.01 µM [12] [%] | inhibition at 0.01 µM [13] [%] | inhibition at 0.1 µM [14] [%] | inhibition at 0.01 µM [15] [%] | IC50 [16] [nM] | IC50 [17] [nM] | IC50 [1] [nM] | IC50 [5] [nM] | IC50 [9] [nM] | also measured
1 | CCc1c(F)ccc2cc(O)cc(-c3ncc4c(N5CC6CCC(C5)C6C#N)nc(OC[C@@]56CCCN5C[C@H](F)C6)nc4c3F)c12 (stereo partly drawn) [Example 559, 3-(7-(8-ethyl-7-fluoro-3-hydroxynaphthalen-1-yl)-8-fluoro-2-(((2R,7aS)-2-fluorohexahydro-1H-pyrrolizin-7a-yl)methoxy)pyrido[4,3-d]pyrimidin-4-yl)-3-azabicyclo[3.2.1]octane-8-carbonitrile] | 75 | 82 | 9490 | 5 | 98 | 82 | 105 | < 2 | 89 | 89 | < 2 | 70 | 73 | 55 | 82 | 20 | 15 |  |  |  | 
2 | O=S1(=O)CCC2(CCCN(c3nc(OC[C@@]45CCCN4C[C@H](F)C5)nc4c(F)c(-c5cc(O)cc6cccc(Cl)c56)ncc34)C2)N1 (stereo partly drawn) [Example 604, 7-(7-(8-chloro-3-hydroxynaphthalen-1-yl)-8-fluoro-2-(((2R,7aS)-2-fluorohexahydro-1H-pyrrolizin-7a-yl)methoxy)pyrido[4,3-d]pyrimidin-4-yl)-2-thia-1,7-diazaspiro[4.5]decane 2,2-dioxide] | 27 |  | 425 | 2 | 94 |  | 81 | < 2 | 69 |  | < 2 |  |  | 64 |  | 71 | < 2 |  |  |  | IC50 ([2]; TR-FRET tracer displacement, KRas G13D): < 2 nM; IC50 ([6]; TR-FRET tracer displacement, KRas Q61H): < 2 nM; inhibition at 0.1 µM ([7]; ASPC1, 3 h, single point, 100 nM compound, 3 hrs, AsPC-1 cells): 53%; IC50 ([10]; TR-FRET tracer displacement, KRas G12C): < 2 nM; IC50 ([12]; TR-FRET tracer displacement, KRas G12A): 2 nM; IC50 ([13]; TR-FRET tracer displacement, KRas WT): < 2 nM; IC50 ([15]; TR-FRET tracer displacement, KRas G12S): < 2 nM; inhibition at 0.1 µM ([16]; NCI-H727, 3 h, single point, 100 nM compound, 3 hrs, H727 cells): 47%
3 | CCc1c(F)ccc2cc(O)cc(-c3ncc4c(N5CCCC6(CCS(=O)(=O)N6)C5)nc(OC[C@@]56CCCN5C[C@H](F)C6)nc4c3F)c12 (stereo partly drawn) [Example 643, 7-(7-(8-ethyl-7-fluoro-3-hydroxynaphthalen-1-yl)-8-fluoro-2-(((2R,7aS)-2-fluorohexahydro-1H-pyrrolizin-7a-yl)methoxy)pyrido[4,3-d]pyrimidin-4-yl)-2-thia-1,7-diazaspiro[4.5]decane 2,2-dioxide] |  | 99 | 625 | 4 |  | 100 | 6 | < 2 | 100 | 99 | < 2 | 88 | 98 | 87 | 98 | 21 | < 2 | 16 | 2 | 5 | IC50 [14]: 13 nM
4 | CCc1c(F)ccc2cc(O)cc(-c3ncc4c(N5CCCn6nc(C(=O)N(C)C)c(C)c6C5)nc(OC[C@@]56CCCN5C[C@H](F)C6)nc4c3F)c12 [Example 670, 5-(7-(8-ethyl-7-fluoro-3-hydroxynaphthalen-1-yl)-8-fluoro-2-(((2R,7aS)-2-fluorotetrahydro-1H-pyrrolizin-7a(5H)-yl)methoxy)pyrido[4,3-d]pyrimidin-4-yl)-N,N,3-trimethyl-5,6,7,8-tetrahydro-4H-pyrazolo[1,5-a][1,4]diazepine-2-carboxamide] |  | 98 | 4680 | 2 |  | 97 | 2 | < 2 |  | 99 | < 2 | 98 | 98 |  | 100 | 5 | < 2 | 9 | 1 | 17 | IC50 [14]: 53 nM
